Measurements published in paper PMC3876124, “Identification and Biochemical Characterization of Protein Phosphatase 5 from the Cantharidin-Producing Blister Beetle, Epicauta chinensis” (International Journal of Molecular Sciences, 2013).
Read-outs that look alike come from different tables or passages of the source.

Target: T1, Protein phosphatase 5 (EcPP5, rEcPP5) (Epicauta chinensis, UniProt W0FW71)
T1 construct: recombinant full ORF (499 aa), N-terminal His6 tag, E. coli expressed
T1 sequence (W0FW71 1-499): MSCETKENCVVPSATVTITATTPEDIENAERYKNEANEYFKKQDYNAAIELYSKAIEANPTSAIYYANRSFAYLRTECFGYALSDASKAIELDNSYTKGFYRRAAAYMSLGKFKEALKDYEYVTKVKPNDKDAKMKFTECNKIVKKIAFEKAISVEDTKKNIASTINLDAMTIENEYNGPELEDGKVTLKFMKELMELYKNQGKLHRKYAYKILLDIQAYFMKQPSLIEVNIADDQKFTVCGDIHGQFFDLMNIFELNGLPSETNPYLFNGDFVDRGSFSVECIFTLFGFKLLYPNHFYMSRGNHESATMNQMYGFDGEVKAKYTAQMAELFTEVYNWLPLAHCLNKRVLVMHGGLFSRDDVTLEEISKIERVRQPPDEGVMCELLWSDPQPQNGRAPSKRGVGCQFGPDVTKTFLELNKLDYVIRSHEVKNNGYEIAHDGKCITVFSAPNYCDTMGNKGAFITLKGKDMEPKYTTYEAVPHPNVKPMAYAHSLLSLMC
Assay: pNPP phosphatase assay, dose-response, purified enzyme
Assay type: biochemical

| SMILES | IC50 [µM] | IC50 (read-out: IC50) [µM] |
| --- | --- | --- |
| C[C@@]12C(=O)OC(=O)[C@]1(C)[C@H]1CC[C@@H]2O1 [cantharidin] | 3.19 |  |
| C=C1[C@@H](O)[C@@H]2O[C@]3(CC[C@H](/C=C/[C@@H](C)[C@@H]4CC(C)=C[C@@]5(O[C@H](C[C@@](C)(O)C(=O)O)CC[C@H]5O)O4)O3)CC[C@H]2O[C@@H]1[C@@H](O)C[C@H](C)[C@H]1O[C@@]2(CCCCO2)CC[C@H]1C [okadaic acid] | 0.19 |  |
| O=C1OC(=O)[C@H]2[C@@H]1[C@@H]1CC[C@H]2O1 [norcantharidin] |  | 25.7 |
| O=C(O)[C@@H]1[C@H](C(=O)O)[C@H]2CC[C@@H]1O2 [endothall] | 28.4 |  |
